The values below are quoted from earlier work in patent publication US10499664B2, “Fish feed formulation of Hypericum perforatum, Rosamarinus officianalis or a mixture thereof” (UNIVERSIDAD DE SANTIAGO DE CHILE, priority 2015, dated 2019).

Each structure is given as a SMILES string.

Common to all, as to conditions: pre-treatment, inflamed mouse ears
Data set [1] concerns COX-2.
For data set [2], the system named is TNF-α.
Data set [3] deals with IL-1β.

For `CC(C)c1cc2c(c(O)c1O)[C@@]1(C(=O)O)CCCC(C)(C)[C@@H]1CC2` [carnosic acid], the COX-2 inhibition result in data set [1] is “selectively inhibiting”. In data set [2], the TNF-α gene expression entry is reported as “reducing their expression”. Also, the IL-1β gene expression entry in data set [3] is “reducing their expression”.
On to `CC(C)c1cc2c(c(O)c1O)[C@@]13CCCC(C)(C)[C@@H]1C[C@@H]2OC3=O` [carnosol], for which the COX-2 inhibition entry in data set [1] was “selectively inhibiting”. In addition, in data set [2], the TNF-α gene expression result was “reducing their expression”. The IL-1β gene expression result in data set [3] was “reducing their expression”.
